Experimental findings from EP0639376A1, “Liquid composition containing amide derivative” (TERUMO KABUSHIKI KAISHA, priority 1993, dated 1995) are described below.

Holding throughout (format): physicochemical
A short description of series [1]: Test for stability: percentage of compound remaining after storage at 60°C, measured by liquid chromatography. The note with it: for remaining at 480 h: buffer with hco-60, Table 5, 0.05 g compound, 1.0 g HCO-60, pH buffer, 60°C, 20 days, read-out: Stability (as percentage of compound remained after stored at 60°C for 20 days). How it is done: The difference in the stability of Compound (III) was tested, depending on the solubilizer added thereto. The stability was represented by the percentage (%) of the amount of Compound (III) remained after storage. Precisely, each sample formulation shown in Table 2 below was put in a glass tube with a screw cap and stored for 10 days and 20 days both at 60°C, whereupon the percentage of the amount of the compound remained after the storage was measured by liquid chromatography. From the value thus measured, the stability of the compound was evaluated.
Next, to examine the influence of the concentration of the solubilizer on the stability of Compound (III), experiments were carried out where the concentration of the nonionic surfactant to be added was stepwise increased while the concentration of Compound (III) was kept constant. Precisely, each sample formulation shown in Table 3 below was stored for 10 days and 20 days both at 60°C, whereupon the percentage (%) of the amount of Compound (III) remained after the storage was measured by liquid chromatography. On the basis of the thus-measured percentage, the stability of the compound was evaluated.

Series [2] in a line: Test for solubility: dissolution of the compound observed with the naked eye. As to conditions: Table 5; 0.05 g compound, 1.0 g HCO-60, pH buffer. How it is done: To test the solubility of the above-mentioned compound, various experiments were carried out under different conditions in the presence or absence of a nonionic surfactant.
Formulation No. 1 was prepared by heating and dissolving 0.05 g of Compound (III) and 0.5 g of polyoxyethylene-hardened castor oil (HCO-60) in a beaker at about 60°C followed by gradually adding thereto lactic acid/sodium lactate buffer (pH 5.0) as the pH buffer while stirring to dissolve them.

Series [3] can be described thus: Solubility of the compound in solvents (description of the substance).
Series [4] can be described thus: Mean particle size of formed micelles by light-scattering photometry. Also noted: key: - : No micelle detected. As to conditions: Compound (III) 0.005 W/V %. The source says:
It was confirmed that, when the concentration of Compound (III) was 0.005 W/V % and when the concentration of HCO-60 was 0.10 W/V % or more, micelles having a mean particle size of from 16 to 20 nm were formed.

As for `CCOC(=O)Oc1ccc(/C=C/C(=O)NCCN2CCC(OC(c3ccccc3)c3ccccc3)CC2)cc1OC(=O)OCC` [(VI)], in series [1], the remaining at 480 h came out at 90.9%. Besides, the Solubility result in series [2] is on record as “Dissolved clear”.
Consider `CCOC(=O)Oc1ccc(/C=C/C=C/C(=O)NCCN2CCC(OC(c3ccccc3)c3ccccc3)CC2)cc1OC(=O)OCC` [(VII)], for which, in series [1], the remaining at 480 h worked out at 92.6%. Further, the Solubility entry in series [2] is listed as “Dissolved clear”.
For the compound `CCOC(=O)Oc1ccc(/C=C/C=C/C(=O)NCCN2CCC(OC(c3ccccc3)c3ccccc3)CC2)cc1OC` [Compound (III), 1-[{5'-(3''-methoxy-4''-ethoxycarbonyloxyphenyl)-2',4'-pentadienoyl}aminoethyl]-4-diphenylmethoxypiperidine], in series [3], the solubility in acetone entry is “easily soluble”, the solubility in acetonitrile result was “soluble in acetonitrile to some degree”, the solubility in dichloroethane entry is recorded as “easily soluble” and the solubility in ethanol result was “hardly soluble”. Also, the solubility in water result in series [3] is reported as “almost insoluble”. For the same compound, in series [1] (result in words, from Table 3, HCO-60 0.10 W/V % or more), the “stabilization of Compound (III)” value was “almost satisfactorily stabilized”. Also, the “Mean Particle Size” value in series [4] (HCO-60 0.05 W/V %) was “-”. Besides, in series [4] (HCO-60 0.10 W/V %), the “Mean Particle Size” value is on record as 16.2 +/- 3.7 nm. For the same compound, the “Mean Particle Size” value in series [4] (HCO-60 0.25 W/V %) is on record as 19.6 +/- 4.3 nm. In addition, the “Mean Particle Size” value in series [4] (HCO-60 0.50 W/V %) is listed as 18.3 +/- 4.5 nm. The “Mean Particle Size” value in series [4] (HCO-60 1.00 W/V %) is on record as 18.8 +/- 4.2 nm.
With `CCOC(=O)Oc1ccc(/C=C/C(=O)NCCN2CCC(OC(c3ccccc3)c3ccccc3)CC2)cc1OC` [Compound (IV)], the remaining at 480 h in series [1] was determined as 91.2%. Also, the Solubility entry in series [2] is reported as “Dissolved clear”.
`CCOC(=O)Oc1ccc(/C=C/C=C/C(=O)NCCCN2CCN(C(c3ccccc3)c3ccccc3)CC2)cc1OC` [Compound (V)]: the remaining at 480 h in series [1] stood at 92.1%. Besides, the Solubility entry in series [2] is “Dissolved clear”.
